Tests used:
Assay in all cases: KINOMEscan (ScanMAX) kinase profiling
Type in all cases: binding
[1] = molecular target: T1, panel of 468 kinases (Homo sapiens, UniProt O95382); details: ASK2; 1 μM; read-out: % control
T1 construct: purchased KINOMEscan (ScanMAX) service
T1 sequence (O95382 1-1288): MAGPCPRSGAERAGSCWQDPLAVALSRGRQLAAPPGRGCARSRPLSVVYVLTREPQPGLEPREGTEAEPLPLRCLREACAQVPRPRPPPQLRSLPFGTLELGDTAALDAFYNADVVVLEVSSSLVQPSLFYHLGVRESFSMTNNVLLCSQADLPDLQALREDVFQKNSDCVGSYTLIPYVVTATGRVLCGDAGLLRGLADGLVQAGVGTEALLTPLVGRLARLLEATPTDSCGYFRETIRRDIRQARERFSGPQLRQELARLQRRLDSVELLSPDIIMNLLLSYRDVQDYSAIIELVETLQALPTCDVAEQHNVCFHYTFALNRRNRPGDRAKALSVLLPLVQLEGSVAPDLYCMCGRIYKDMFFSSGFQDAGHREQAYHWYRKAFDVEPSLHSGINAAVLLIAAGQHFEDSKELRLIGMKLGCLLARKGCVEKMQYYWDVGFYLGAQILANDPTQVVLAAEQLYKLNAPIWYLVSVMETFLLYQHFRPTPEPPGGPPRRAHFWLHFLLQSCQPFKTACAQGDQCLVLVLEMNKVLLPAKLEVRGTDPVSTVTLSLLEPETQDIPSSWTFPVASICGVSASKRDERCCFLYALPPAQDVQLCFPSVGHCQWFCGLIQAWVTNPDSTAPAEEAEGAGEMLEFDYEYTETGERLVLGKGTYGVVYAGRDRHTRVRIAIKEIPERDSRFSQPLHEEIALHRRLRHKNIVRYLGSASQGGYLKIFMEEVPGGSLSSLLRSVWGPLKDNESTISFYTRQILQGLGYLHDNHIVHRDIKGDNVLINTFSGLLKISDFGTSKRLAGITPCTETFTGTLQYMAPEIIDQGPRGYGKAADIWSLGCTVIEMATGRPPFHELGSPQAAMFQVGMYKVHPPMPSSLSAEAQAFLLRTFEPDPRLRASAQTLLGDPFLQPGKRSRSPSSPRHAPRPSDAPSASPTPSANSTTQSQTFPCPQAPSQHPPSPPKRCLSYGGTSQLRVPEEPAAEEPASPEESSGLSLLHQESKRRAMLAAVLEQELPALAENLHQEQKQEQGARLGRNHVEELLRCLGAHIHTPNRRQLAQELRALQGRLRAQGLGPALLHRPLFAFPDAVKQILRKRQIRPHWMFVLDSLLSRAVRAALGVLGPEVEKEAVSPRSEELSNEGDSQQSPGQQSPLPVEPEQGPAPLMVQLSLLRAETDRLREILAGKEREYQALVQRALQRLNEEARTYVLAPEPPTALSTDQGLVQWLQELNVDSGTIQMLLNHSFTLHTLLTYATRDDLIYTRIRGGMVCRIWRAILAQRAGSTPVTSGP

[2] = molecular target: T2, panel of 468 kinases (Homo sapiens, UniProt P08922); details: ROS1; 1 μM; read-out: % control
T2 construct: purchased KINOMEscan (ScanMAX) service

[3] = molecular target: T3, panel of 468 kinases (Homo sapiens, UniProt Q14012); details: CAMK1; 1 μM; read-out: % control
T3 construct: purchased KINOMEscan (ScanMAX) service

[4] = molecular target: T4, panel of 468 kinases (Homo sapiens, UniProt Q96Q40); details: PFTAIRE2; 1 μM; read-out: % control
T4 construct: purchased KINOMEscan (ScanMAX) service

[5] = molecular target: T5, panel of 468 kinases (Homo sapiens, UniProt Q99755); details: PIP5K1A; 1 μM; read-out: % control
T5 construct: purchased KINOMEscan (ScanMAX) service

[6] = molecular target: T6, panel of 468 kinases (Homo sapiens, UniProt Q9UF33); details: EPHA6; 1 μM; read-out: % control
T6 construct: purchased KINOMEscan (ScanMAX) service
T6 sequence (Q9UF33 23-1036): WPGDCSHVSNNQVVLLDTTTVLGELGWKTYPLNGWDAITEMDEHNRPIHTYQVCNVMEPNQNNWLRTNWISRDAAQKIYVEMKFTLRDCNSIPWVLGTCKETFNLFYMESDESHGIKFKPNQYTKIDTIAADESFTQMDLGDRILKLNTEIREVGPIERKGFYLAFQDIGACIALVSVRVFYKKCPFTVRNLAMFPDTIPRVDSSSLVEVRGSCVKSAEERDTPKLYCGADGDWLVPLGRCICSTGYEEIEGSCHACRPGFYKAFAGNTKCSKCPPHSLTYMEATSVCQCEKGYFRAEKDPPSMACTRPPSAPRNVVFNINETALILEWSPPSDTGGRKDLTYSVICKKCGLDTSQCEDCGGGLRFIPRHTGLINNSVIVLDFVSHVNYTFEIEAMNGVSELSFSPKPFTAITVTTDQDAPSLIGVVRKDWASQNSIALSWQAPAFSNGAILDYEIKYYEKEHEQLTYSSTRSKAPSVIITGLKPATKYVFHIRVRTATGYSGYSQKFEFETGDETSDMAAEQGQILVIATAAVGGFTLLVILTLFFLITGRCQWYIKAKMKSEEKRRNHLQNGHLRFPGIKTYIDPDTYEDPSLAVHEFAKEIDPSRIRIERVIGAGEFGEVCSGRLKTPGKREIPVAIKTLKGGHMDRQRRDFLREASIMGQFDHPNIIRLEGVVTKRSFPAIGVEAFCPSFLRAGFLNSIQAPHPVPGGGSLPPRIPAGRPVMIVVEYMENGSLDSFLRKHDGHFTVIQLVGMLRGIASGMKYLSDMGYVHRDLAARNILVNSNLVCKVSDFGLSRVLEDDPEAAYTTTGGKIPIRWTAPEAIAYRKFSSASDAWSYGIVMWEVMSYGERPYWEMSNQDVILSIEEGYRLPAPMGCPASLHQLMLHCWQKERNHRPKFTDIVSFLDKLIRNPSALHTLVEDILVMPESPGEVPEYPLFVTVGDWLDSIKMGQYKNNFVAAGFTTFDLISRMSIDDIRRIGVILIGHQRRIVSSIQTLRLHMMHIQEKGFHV

[7] = molecular target: T7, panel of 468 kinases (Homo sapiens, UniProt Q9UKE5); details: TNIK; 1 μM; read-out: % control
T7 construct: purchased KINOMEscan (ScanMAX) service
T7 sequence (Q9UKE5 whole entry): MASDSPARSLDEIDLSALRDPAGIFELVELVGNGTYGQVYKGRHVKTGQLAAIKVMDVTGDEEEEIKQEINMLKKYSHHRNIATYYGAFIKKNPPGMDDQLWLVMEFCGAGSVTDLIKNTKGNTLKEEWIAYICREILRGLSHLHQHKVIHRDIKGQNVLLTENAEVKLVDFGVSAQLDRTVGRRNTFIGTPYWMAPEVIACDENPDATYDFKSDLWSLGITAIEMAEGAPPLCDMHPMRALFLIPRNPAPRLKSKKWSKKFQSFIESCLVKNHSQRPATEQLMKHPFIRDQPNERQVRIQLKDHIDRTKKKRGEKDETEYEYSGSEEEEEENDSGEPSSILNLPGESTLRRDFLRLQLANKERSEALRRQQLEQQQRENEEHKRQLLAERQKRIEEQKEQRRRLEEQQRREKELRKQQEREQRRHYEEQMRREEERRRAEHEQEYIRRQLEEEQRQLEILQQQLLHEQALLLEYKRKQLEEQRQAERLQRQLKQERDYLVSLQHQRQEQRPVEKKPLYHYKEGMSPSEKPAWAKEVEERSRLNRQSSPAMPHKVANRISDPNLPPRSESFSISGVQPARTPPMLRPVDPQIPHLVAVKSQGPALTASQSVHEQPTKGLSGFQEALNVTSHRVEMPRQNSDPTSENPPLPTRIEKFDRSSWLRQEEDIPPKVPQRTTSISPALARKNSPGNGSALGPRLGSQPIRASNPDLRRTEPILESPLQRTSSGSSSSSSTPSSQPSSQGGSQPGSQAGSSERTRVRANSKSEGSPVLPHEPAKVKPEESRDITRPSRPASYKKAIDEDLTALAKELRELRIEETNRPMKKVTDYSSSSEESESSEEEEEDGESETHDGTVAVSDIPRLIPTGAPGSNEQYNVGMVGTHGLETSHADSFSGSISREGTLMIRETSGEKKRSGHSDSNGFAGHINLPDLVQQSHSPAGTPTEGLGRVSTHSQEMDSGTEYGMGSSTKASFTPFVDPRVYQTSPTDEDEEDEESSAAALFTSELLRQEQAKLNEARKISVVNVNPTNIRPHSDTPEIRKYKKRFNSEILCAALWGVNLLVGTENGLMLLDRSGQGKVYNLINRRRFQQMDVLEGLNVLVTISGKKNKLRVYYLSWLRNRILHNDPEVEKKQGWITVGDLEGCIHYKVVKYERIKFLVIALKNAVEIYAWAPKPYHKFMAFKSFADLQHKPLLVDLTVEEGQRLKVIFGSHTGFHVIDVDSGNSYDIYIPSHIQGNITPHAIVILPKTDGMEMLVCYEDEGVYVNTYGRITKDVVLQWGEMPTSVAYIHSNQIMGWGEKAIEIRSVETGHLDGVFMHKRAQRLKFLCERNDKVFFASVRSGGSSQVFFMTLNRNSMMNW

T2 sequence (P08922 28-2347): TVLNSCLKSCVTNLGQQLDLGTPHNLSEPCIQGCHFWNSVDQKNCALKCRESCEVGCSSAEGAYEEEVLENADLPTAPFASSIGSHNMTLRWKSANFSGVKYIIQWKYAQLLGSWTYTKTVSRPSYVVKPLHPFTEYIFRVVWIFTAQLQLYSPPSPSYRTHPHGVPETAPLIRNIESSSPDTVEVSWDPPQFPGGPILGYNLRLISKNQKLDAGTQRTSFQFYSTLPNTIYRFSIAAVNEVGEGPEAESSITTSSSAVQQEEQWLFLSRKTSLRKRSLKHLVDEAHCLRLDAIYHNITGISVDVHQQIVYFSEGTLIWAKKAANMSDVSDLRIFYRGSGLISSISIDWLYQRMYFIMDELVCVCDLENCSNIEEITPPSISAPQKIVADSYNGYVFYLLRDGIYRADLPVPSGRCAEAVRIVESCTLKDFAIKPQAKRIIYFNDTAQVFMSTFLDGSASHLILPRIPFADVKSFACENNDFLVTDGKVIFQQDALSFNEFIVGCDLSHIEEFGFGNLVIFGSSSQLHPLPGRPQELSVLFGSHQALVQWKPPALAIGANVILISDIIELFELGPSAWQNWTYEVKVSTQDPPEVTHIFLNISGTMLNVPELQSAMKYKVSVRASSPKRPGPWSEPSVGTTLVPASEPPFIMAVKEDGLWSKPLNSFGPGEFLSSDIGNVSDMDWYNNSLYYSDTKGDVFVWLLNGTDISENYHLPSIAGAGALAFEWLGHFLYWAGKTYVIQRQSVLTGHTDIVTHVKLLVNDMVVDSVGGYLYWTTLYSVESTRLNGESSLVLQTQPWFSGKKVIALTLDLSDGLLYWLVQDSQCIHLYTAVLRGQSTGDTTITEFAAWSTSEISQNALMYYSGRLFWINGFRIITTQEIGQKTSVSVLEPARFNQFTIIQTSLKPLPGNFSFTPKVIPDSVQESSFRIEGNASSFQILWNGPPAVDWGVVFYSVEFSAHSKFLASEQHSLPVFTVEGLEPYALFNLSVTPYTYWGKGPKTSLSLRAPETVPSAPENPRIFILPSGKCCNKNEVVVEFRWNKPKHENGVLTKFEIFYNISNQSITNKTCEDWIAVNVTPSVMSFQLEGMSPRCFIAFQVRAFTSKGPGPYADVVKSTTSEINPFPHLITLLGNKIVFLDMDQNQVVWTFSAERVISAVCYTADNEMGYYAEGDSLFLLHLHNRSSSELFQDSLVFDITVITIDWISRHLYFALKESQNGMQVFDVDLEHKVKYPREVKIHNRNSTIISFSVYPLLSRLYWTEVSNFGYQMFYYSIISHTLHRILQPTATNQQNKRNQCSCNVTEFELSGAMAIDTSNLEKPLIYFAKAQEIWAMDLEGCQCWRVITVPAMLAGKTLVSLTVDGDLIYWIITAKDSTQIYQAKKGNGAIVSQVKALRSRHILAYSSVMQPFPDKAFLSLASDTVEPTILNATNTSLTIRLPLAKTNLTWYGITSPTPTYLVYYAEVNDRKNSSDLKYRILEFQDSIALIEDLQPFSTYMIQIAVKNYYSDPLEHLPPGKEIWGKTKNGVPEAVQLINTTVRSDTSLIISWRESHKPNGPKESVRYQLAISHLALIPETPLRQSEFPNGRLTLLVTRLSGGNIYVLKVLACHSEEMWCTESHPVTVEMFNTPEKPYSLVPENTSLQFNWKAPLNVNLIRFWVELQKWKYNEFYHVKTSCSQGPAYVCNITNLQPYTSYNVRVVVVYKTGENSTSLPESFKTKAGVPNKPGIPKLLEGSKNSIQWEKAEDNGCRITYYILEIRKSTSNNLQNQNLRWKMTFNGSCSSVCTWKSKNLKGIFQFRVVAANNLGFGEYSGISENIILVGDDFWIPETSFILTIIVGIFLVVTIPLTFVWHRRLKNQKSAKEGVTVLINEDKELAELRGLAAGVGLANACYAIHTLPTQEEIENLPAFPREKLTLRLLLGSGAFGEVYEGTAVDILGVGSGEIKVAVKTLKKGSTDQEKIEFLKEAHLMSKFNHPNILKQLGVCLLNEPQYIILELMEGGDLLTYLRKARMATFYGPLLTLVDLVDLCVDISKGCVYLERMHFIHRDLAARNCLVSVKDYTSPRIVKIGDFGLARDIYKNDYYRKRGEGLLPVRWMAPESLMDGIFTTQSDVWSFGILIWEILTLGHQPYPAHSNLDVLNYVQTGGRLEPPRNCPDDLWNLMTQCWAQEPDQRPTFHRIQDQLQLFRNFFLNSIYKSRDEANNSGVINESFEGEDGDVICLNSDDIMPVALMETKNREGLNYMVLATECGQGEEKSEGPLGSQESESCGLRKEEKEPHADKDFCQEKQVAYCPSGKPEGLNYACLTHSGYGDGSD
T4 sequence (Q96Q40 whole entry): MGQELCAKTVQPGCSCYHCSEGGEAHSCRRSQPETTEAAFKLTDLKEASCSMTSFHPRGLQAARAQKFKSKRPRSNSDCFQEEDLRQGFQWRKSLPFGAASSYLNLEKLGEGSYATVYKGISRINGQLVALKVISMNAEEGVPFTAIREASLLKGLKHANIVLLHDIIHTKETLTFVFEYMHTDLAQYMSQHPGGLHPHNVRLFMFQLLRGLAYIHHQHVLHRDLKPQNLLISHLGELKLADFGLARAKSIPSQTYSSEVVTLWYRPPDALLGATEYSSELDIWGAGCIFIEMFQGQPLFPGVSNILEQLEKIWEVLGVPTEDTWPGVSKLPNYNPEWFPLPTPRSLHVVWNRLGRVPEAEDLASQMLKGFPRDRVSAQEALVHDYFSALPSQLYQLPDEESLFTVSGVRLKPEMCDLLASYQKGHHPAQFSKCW
T5 sequence (Q99755 whole entry): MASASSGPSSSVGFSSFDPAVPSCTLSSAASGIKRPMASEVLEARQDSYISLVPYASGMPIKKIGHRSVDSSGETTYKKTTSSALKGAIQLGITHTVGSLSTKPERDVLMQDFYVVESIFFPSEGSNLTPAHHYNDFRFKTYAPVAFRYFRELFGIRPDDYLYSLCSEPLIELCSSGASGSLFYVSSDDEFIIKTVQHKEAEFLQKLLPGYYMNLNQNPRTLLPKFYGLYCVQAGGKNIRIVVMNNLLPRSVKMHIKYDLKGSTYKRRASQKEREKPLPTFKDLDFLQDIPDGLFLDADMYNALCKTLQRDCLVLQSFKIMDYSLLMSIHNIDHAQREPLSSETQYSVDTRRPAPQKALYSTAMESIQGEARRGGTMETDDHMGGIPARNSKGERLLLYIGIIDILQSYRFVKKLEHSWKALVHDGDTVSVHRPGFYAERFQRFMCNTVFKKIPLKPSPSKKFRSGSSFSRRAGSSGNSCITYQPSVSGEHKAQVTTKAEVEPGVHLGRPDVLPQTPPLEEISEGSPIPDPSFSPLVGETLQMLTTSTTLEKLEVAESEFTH
T3 sequence (Q14012 whole entry): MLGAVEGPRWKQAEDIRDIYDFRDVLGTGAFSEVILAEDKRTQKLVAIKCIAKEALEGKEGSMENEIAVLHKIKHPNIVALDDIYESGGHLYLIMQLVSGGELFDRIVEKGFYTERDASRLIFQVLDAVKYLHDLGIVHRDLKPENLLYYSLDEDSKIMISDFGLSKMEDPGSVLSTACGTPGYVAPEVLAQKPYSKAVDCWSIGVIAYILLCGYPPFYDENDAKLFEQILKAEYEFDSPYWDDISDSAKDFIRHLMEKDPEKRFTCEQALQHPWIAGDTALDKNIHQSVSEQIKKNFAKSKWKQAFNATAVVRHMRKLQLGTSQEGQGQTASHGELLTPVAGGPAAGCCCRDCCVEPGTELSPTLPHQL

| Structure (SMILES) | remaining binding at 1 µM [1] | remaining binding at 1 µM [2] | remaining binding at 1 µM [3] | remaining binding at 1 µM [4] | remaining binding at 1 µM [5] | remaining binding at 1 µM [6] | remaining binding at 1 µM [7] |
| --- | --- | --- | --- | --- | --- | --- | --- |
| CNc1nc(Nc2ccc(S(=O)(=O)N3CCC(N4CCOCC4)CC3)cc2OC)nc2[nH]cc(Cl)c12 [Compound 12, 5-chloro-N2-(2-methoxy-4-((4-morpholinopiperidin-1-yl)sulfonyl)phenyl)-N4-methyl-7H-pyrrolo[2,3-d]pyrimidine-2,4-diamine] | 53% | 85% | 100% | 100% | 100% | 100% | 92% |
| CNc1nc(Nc2ccc(C(=O)N3CCC(N4CCOCC4)CC3)c3c2OCO3)nc2[nH]cc(Cl)c12 [Compound 75, (7-((5-chloro-4-(methylamino)-7H-pyrrolo[2,3-d]pyrimidin-2-yl)amino)benzo[d][1,3]dioxol-4-yl)(4-morpholinopiperidin-1-yl)methanone] | 39% | 86% | 75% | 100% | 34% | 100% | 39% |
| CNc1nc(Nc2ccc(P3(=O)CCN(C4CCOCC4)CC3)cc2OC)nc2[nH]cc(Cl)c12 [Compound 77, 4-(4-((5-chloro-4-(methylamino)-7H-pyrrolo[2,3-d]pyrimidin-2-yl)amino)-3-methoxyphenyl)-1-(tetrahydro-2H-pyran-4-yl)-1,4-azaphosphinane 4-oxide] | 51% | 54% | 67% | 100% | 100% | 100% | 72% |

From patent US12479847B2 (DANA-FARBER CANCER INSTITUTE, INC., priority 2019, dated 2025)
